Literature values, collected in patent publication US11603489B2, “Method for inhibiting water permeation in an extraction well of a hydrocarbon oil from an underground reservoir” (priority 2016, dated 2023).
Where two headings read alike, the source gives them in different places.

Legend:
[1] = temperature at which the initiator has a half-life of 10 hours
[2] = not given; remark: listed apart in the source
[3] = temperature at which the initiator has a half-life of 10 hours, in benzene
[4] = distribution coefficient between water and 1-octanol

Compound	T1/2(10 h) in water [1]	Log P octanol/water [2, 4]	other results
CC(C)(N=NC(C)(C)C(=N)N)C(=N)N.Cl.Cl [2,2′-Azobis(2-methylpropionamidine) dihydrochloride]	–	–	T1/2(10 h) in water ([1]; dihydrochloride): 55 °C
CC(C#N)(CCC(=O)O)N=NC(C)(C#N)CCC(=O)O (stereo not drawn) [4,4′-Azobis(4-cyanovaleric acid)]	50 °C	–	–
CC(C)(C#N)N=NC(N)=O [Composition V-30, 1-[(1-cyano-1-methylethyl)azo]formamide]	–	> 0	T1/2(10 h) in benzene [3]: 104 °C
CCC(C)(C#N)N=NC(C)(C#N)CC (stereo not drawn) [Composition V-59, 2,2′-azobis(2-methylbutyronitrile)]	–	> 0	–
CC(C)(N=NC(C)(C)C(=O)NC(CO)(CO)CO)C(=O)NC(CO)(CO)CO [VA080, 2,2′-Azobis{2-methyl-N-[1,1-bis(hydroxymethyl)-2-hydroxyethyl]propionamide}]	80 °C	–	Log P octanol/water [2]: < 0
CC(C)(N=NC(C)(C)C(=O)NCCO)C(=O)NCCO [VA086, 2,2′-Azobis[2-methyl-N-(2-hydroxyethyl)propionamide]]	87 °C	–	–
CC(C)(N=NC(C)(C)C1=NCCN1)C1=NCCN1.Cl.Cl [VA-044, 2,2′-Azobis[2-(2-imidazolin-2-yl)propane]dihydrochloride]	44 °C	–	–
CC(C)(N=NC(C)(C)C1=NCCN1)C1=NCCN1.O.O.O=S(=O)(O)O.O=S(=O)(O)O [VA-046B, 2,2′-Azobis[2-(2-imidazolin-2-yl)propane]disulfate dihydrate]	47 °C	–	–
CC(C)(N=NC(C)(C)C(=N)NCCC(=O)O)C(=N)NCCC(=O)O.O.O.O.O [VA-057, 2,2′-Azobis[N-(2-carboxyethyl)-2-methylpropionamidine]tetrahydrate]	57 °C	< 0	–
CC(C)(N=NC(C)(C)C1=NCCN1CCO)C1=NCCN1CCO.Cl.Cl [VA-060, 2,2′-Azobis{2-[1-(2-hydroxyethyl)-2-imidazolinyl]propane}-dihydrochloride]	60 °C	< 0	–
CC(C)(N=NC(C)(C)C1=NCCN1)C1=NCCN1 [VA-061, 2,2′-Azobis[2-(2-imidazolin-2-yl)propane]]	61 °C	–	–
CCC(C)(N=NC(C)(CC)C(=N)N1CCCC1)C(=N)N1CCCC1.Cl.Cl (stereo not drawn) [VA-067, 2,2′-Azobis(1-imino-1-pyrrolidine-2-ethylpropane)-dihydrochloride]	67 °C	–	–
CCCCNC(=O)C(C)(C)N=NC(C)(C)C(=O)NCCCC [VAm-110, 2,2′-azobis(N-butyl-2-methylpropionamide)]	–	–	T1/2(10 h) in benzene: 110 °C; Log P octanol/water [2]: > 0
CC(C)(N=NC(C)(C)C(=O)NC1CCCCC1)C(=O)NC1CCCCC1 [VAm-111, 2,2′-azobis(N-cyclohexyl-2-methylpropionamide)]	–	–	T1/2(10 h) in benzene: 111 °C; Log P octanol/water [2]: > 0
C=CCNC(=O)C(C)(C)N=NC(C)(C)C(=O)NCC=C [VF-096, 2,2′-azobis[N-(2-propenyl)-2-methylpropionamide]]	–	–	T1/2(10 h) in benzene: 96 °C; Log P octanol/water [2]: > 0
N.N.O=S(=O)(O)OOS(=O)(=O)O [ammonium persulfate]	65 °C	–	–
O=C(OOC(=O)c1ccccc1)c1ccccc1 [benzoyl peroxide]	–	> 0	–
CC(C)(OOC(C)(C)c1ccccc1)c1ccccc1 [dicumyl peroxide]	–	> 0	T1/2(10 h) in benzene [3]: 75 °C
O.O.O=S(=O)([O-])CO.[Na+] [hydroxymethanesulfonic acid monosodium salt dihydrate]	60 °C	< 0	–
CCCCCCCCCCCC(=O)OOC(=O)CCCCCCCCCCC [lauroyl peroxide]	–	> 0	T1/2(10 h) in benzene [3]: 75 °C
O=S(=O)([O-])OOS(=O)(=O)[O-].[K+].[K+] [potassium persulfate]	65 °C	–	–
O=S(=O)([O-])OOS(=O)(=O)[O-].[Na+].[Na+] [sodium persulfate]	65 °C	–	–
CC(C)(C)OOC(C)(C)C [tert-butyl peroxide]	–	> 0	T1/2(10 h) in benzene [3]: 70 °C
CC(C)(C)OOC(=O)c1ccccc1 [tert-butyl peroxybenzoate]	–	> 0	T1/2(10 h) in benzene [3]: 73 °C
